Measurements taken from patent publication US11802128B2, “Azetidine and pyrrolidine PARP1 inhibitors and uses thereof” (Xinthera, Inc., priority 2021, dated 2023).
Read-outs that look alike come from different tables or passages of the source.

Key:
[1] = test system: DLD-1 BRCA2(−/−) cells; experiment: Cell growth inhibition assay (CellTiter-Glo cell viability, 7 days); type: cell-based; settings: Homo sapiens, 168 h
Text: (§1) The objective of this study is to evaluate the effect of invention compounds on cell proliferation through the cell viability assay in DLD-1 BRCA2(−/−) and parental isogenic pair and MDA-MB-436 (mutated BRCA1) cell lines. The CellTiter-Glo (CTG) based cell viability assay is designed to determine the number of viable cells in the culture because of compound effect, by quantifying ATP, which indicates the presence of metabolically active cells.
(§2) DLD-1 BRCA2(−/−) and parental isogenic pair were cultured in RPMI 1640 supplemented with 10% fetal bovine serum (FBS), and MDA-MB-436 cells were cultured in DMEM supplemented with 10% FBS. Both are culture at 37° C. with 5% CO2. Invention compounds were distributed to the 384 well plate (Corning, 3764) using Echo acoustic liquid handler to form a 1:3 serially diluted final concentration with top dose of 10 or 30 μM. The cells were seeded into the plate in the density of 50 cells/well (DLD-1 parental), 200 cells/well (DLD-1 BRCA2−/−), or 500 cells/well (MDA-MB-436). After a short spun, the cells were cultured in a well moisturized incubator at 37° C. with 5% CO2 for 7 days without disturbance. The cell viability was measured by CellTiter Glo 2.0 assay kit (Promega, G9243), and growth inhibition rate was calculated and plotted against final compound concentration, and the data were fitted in Xfit to generate IC50.

[2] = test system: MDA-MB-436 (mutated BRCA1) cells; experiment: as above; type: cell-based; settings: Homo sapiens, 168 h, MDA-MB-436, 7 days
Text: as §1, §2

[3] = target: PARP1 (Homo sapiens (Human), UniProt P09874); experiment: Biochemical fluorescent polarization (FP) assay, displacement of PARPi-FL; type: binding; settings: 20 nM protein, 3 nM PARPi-FL, 4 h at room temperature
Experimental: (§3) The assay was performed utilizing the following method:
(§4) 100% DMSO was used for the high (with protein) and low (without protein) control samples. 20 nL of compound or DMSO alone was added to individual assay plate wells.
(§5) PARP1 and PARP2 protein were expressed, purified, and diluted in assay buffer containing 50 mM Tris pH 8.0, 0.001% Triton X-100, 10 mM MgCl2, 150 mM NaCl to a final concentration of 20 nM. The PARPi-FL was then added at a final concentration of 3 nM.
(§6) The assay plate is centrifuged at 1000 rpm for 1 min and incubated for 4 h at room temperature.
(§7) The fluorescent polarization is read using an Envision plate reader using the following settings: […]

[4] = target: PARP2 (Homo sapiens (Human), UniProt Q9UGN5); experiment: as above; type: binding
Experimental: as §3, §4, §5, §6, §7

[5] = 20 nM protein, 3 nM PARPi-FL, 4 h at room temperature, read-out: IC50 FP PARP2

Sequence of PARP2 (Q9UGN5 whole entry): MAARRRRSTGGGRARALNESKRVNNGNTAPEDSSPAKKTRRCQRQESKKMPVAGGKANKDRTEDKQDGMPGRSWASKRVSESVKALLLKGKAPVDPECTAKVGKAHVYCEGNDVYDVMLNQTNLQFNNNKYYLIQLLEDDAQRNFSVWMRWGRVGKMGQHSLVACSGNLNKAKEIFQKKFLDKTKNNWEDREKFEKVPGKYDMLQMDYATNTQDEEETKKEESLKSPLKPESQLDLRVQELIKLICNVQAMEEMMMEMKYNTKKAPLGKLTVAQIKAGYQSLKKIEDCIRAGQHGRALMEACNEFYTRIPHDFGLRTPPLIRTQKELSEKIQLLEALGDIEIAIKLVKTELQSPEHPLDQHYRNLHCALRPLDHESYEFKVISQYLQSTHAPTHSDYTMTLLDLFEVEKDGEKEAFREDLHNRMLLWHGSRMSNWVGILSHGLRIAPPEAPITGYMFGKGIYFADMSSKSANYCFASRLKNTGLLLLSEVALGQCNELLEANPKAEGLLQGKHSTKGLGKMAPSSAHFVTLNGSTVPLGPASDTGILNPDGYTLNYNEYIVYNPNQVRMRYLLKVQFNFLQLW
Sequence of PARP1 (P09874 whole entry): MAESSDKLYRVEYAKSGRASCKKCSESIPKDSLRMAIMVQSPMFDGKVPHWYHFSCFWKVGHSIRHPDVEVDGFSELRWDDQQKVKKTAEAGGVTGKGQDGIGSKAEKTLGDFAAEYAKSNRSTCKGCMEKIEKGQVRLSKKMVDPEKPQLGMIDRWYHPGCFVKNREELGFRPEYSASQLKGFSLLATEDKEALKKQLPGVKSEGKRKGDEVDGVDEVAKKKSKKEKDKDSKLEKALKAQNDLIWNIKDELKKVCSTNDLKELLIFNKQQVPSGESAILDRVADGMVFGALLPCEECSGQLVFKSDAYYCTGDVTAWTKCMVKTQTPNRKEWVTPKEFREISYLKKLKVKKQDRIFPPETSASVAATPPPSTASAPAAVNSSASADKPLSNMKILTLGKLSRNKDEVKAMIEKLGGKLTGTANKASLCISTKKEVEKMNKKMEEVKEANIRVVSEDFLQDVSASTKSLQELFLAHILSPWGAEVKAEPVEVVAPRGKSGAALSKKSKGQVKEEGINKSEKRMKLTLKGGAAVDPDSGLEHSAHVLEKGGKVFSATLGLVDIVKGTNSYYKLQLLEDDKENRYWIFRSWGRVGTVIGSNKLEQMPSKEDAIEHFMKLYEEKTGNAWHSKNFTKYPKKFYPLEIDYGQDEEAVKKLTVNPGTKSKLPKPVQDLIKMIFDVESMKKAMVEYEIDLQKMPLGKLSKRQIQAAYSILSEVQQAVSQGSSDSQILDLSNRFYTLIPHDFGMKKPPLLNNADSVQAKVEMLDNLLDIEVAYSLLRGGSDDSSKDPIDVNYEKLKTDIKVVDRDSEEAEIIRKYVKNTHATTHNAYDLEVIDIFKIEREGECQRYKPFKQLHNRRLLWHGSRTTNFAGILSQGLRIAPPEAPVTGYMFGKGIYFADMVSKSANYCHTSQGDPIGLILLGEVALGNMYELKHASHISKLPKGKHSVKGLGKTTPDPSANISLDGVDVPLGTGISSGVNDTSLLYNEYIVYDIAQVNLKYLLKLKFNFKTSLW

Compound	EC50 [1] [nM]	EC50 [2] [nM]	IC50 [3] [nM]	IC50 [4, 5] [nM]	IC50 [4] [nM]
CCc1cc2ncc(CN3CC(Oc4ccc(C#N)cc4)C3)cc2[nH]c1=O [Example 22, 4-({1-[(7-ethyl-6-oxo-5H-1,5-naphthyridin-3-yl)methyl]azetidin-3-yl}oxy)benzonitrile]	37	27	5.1	16000	
CCc1cc2ncc(CN3CC(Oc4ccc(C#N)nc4)C3)cc2[nH]c1=O [Example 24]	13	24	9.1	17000	
CNC(=O)c1ncc(O[C@@H]2CCN(Cc3cnc4cc(C5CC5)c(=O)[nH]c4c3)C2)cc1F [Example 25]	36	41	11	25000	
Cc1cc2ncc(CN3CC[C@@H](Oc4cnc(C(=O)NC5CC5)c(F)c4)C3)cc2[nH]c1=O [Example 26]	55	60	12	> 100000	
CCc1cc2ncc(CN3CC[C@@H](Oc4cnc(C(=O)NC)c(F)c4)C3)cc2[nH]c1=O [Example 27]	19	18	6.7	9100	
CCc1cc2ncc(CN3CC[C@@H](Oc4ccc(C(=O)NC)nc4C#N)C3)cc2[nH]c1=O [Example 28]	15	3.3	3.9	> 100000	
CCc1cc2ncc(CN3CC[C@@H](Oc4ccc(C#N)cn4)C3)cc2[nH]c1=O [Example 29]	78	140	11	72000	
CCc1nc2cc(F)c(CN3CC(Oc4ccc(C(=O)NC)nc4)C3)cc2[nH]c1=O [Example 30]	15	47	7.7	> 100000	
CCc1cc2ncc(CN3C[C@H](Oc4ccc(C(=O)NC)nc4)C[C@H]3C)cc2[nH]c1=O [Example 31]	13	31	37	> 100000	
CCc1nc2cc(F)c(CN3CC[C@@H](Oc4ccc(C(=O)NC)nc4)C3)cc2[nH]c1=O [Example 32]	6.4	16	6.8	> 100000	
CCc1cc2ncc(CN3CC[C@@H](Oc4ccc(C(=O)NC5COC5)nc4)C3)cc2[nH]c1=O [Example 33]	4.2	3.7	5.5	33000	
CCc1cc2ncc(CN3C[C@H](Oc4ccc(C#N)cn4)[C@H]3C)cc2[nH]c1=O [Example 34]	150	84	13	12000	
CNC(=O)c1ccc(O[C@@H]2CCN(Cc3cnc4c(c3)[nH]c(=O)c3ccoc34)C2)cn1 [Example 35]	9.9	32	3.6	> 100000	
CCc1cc2ncc(CN3C[C@H](Oc4ccc(C#N)nc4)[C@H]3C)cc2[nH]c1=O [Example 36]	12	3.7	5	15000	
Cc1cc2ncc(CN3C[C@H](Oc4ccc(C#N)nc4)[C@H]3C)cc2[nH]c1=O [Example 37]	80	66	4.5	> 100000	
CCc1cc2ncc(CN3C[C@H](Oc4cnc(C(=O)NC)c(F)c4)[C@H]3C)cc2[nH]c1=O [Example 38]	2.9	2.3	6.1	10000	
[2H]C([2H])([2H])NC(=O)c1ccc(O[C@H]2CN(Cc3cnc4cc(CC)c(=O)[nH]c4c3)[C@@H]2C)cn1 [Example 39]	1.3	1.1	4.3		5900
CCc1cc2ncc(CN3CC(n4ccc5nc(C(=O)NC)ccc54)C3)cc2[nH]c1=O [Example 40]	180	130	5.5	32000	
CNC(=O)c1ccc(O[C@H]2CN(Cc3cnc4cc(C5CC5)c(=O)[nH]c4c3)[C@@H]2C)cn1 [Example 41]	3.2	3	7.6	8300	

Compound	EC50 [1] [nM]	EC50 [2] [nM]	IC50 [3] [nM]	IC50 [4, 5] [nM]	IC50 [4] [nM]
C[C@@H]1[C@@H](Oc2ccc(C(=O)NC3CC3)nc2)CN1Cc1cnc2cc(C3CC3)c(=O)[nH]c2c1 [Example 42]	2.1	1.1	5.8	6300	
CCc1cc2ncc(CN3C[C@H](Oc4ccc(C(=O)NC5CC5)nc4)[C@H]3C)cc2[nH]c1=O [Example 43, N-cyclopropyl-5-{[(2R,3S)-1-[(7-ethyl-6-oxo-5H-1,5-naphthyridin-3-yl)methyl]-2-methylazetidin-3-yl]oxy}pyridine-2-carboxamide]	1.1	0.46	6.6	2900	
CCc1cc2ncc(CN3C[C@H](Oc4ccc(C(=O)NC5COC5)nc4)[C@H]3C)cc2[nH]c1=O [Example 44, 5-(((2R,3S)-1-((7-ethyl-6-oxo-5,6-dihydro-1,5-naphthyridin-3-yl)methyl)-2-methylazetidin-3-yl)oxy)-N-(oxetan-3-yl)picolinamide]	3.5	1.3	6.7	11000	
[2H]C([2H])([2H])NC(=O)c1ccc(O[C@H]2CN(C([2H])([2H])c3cnc4cc(CC)c(=O)[nH]c4c3)[C@@H]2C)cn1 [Example 45]	1.5	0.87	5		6900
CCc1cn2nc(CN3C[C@H](Oc4ccc(C(=O)NC)nc4)[C@H]3C)cc2[nH]c1=O [Example 46]	90	100	9.9	> 100000	
Cc1cc2ncc(CN3C[C@H](Oc4ccc(C#N)cc4)[C@H]3C)cc2[nH]c1=O [Example 47]	100	100	5.8	88000	
CCc1cc2ncc(CN3C[C@H](Oc4ccc(C#N)cc4)[C@H]3C)cc2[nH]c1=O [Example 48]	5.7	3.2	6.2	3500	
CCc1cc2ncc(CN3CC[C@@H](n4ccc5nc(C(=O)NC)ccc54)C3)cc2[nH]c1=O [Example 49]	9.2	9.5	6.3	> 100000	
CNC(=O)c1ccc(O[C@H]2CN(Cc3cnc4cc(C)c(=O)[nH]c4c3)[C@@H]2C)cn1 [Example 50]	5.3	8.7	11	83000	
CCc1cc2ncc(CN3C[C@H](Oc4ccc(F)cc4)[C@H]3C)cc2[nH]c1=O [Example 51]	4.4	7.9	4.1	4200	
CNC(=O)c1ncc(O[C@H]2CN(Cc3cnc4cc(C)c(=O)[nH]c4c3)[C@@H]2C)cc1F [Example 52]	12	9.8	6.3	76000	
Cc1cc2ncc(CN3C[C@H](Oc4ccc(C(=O)NC5CC5)nc4)[C@H]3C)cc2[nH]c1=O [Example 53]	2.2	1.3	8	61000	
CCNC(=O)c1ccc(OC2CN(Cc3cnc4cc(C)c(=O)[nH]c4c3)C2)cn1 [Example 56]	45	12	6.2	76000	
Cc1cc2ncc(CN3CC(Oc4ccc(C(=O)NC5CC5)nc4)C3)cc2[nH]c1=O [Example 57]	12	6.8	9.4	47000	
CCNC(=O)c1ccc(OC2CN(Cc3cnc4cc(CC)c(=O)[nH]c4c3)C2)cn1 [Example 58]	3.3	1.7	6	8300	
CCc1nc2cc(F)c(CN3C[C@H](Oc4ccc(C(=O)NC)nc4)[C@H]3C)cc2[nH]c1=O [Example 59]	9.8	4.7	5.5	> 100000	
Cc1cc2ncc(CN3C[C@H](Oc4ccc(F)nc4)[C@H]3C)cc2[nH]c1=O [Example 62]	86	140	18	52000	
CCc1cc2ncc(CN3C[C@H](n4ccc5nc(C(=O)NC)ccc54)[C@H]3C)cc2[nH]c1=O [Example 63, 1-[(2R,3S)-1-[(7-ethyl-6-oxo-5H-1,5-naphthyridin-3-yl)methyl]-2-methylazetidin-3-yl]-N-methylpyrrolo[3,2-b]pyridine-5-carboxamide]	4.8	3.6	6.6	9600	
